The structures appear in SMILES notation.

As usually defined, the melting point is the temperature of the solid-liquid transition.

Compound `CCn1nc(Cl)c(CS(=O)(=O)C2=NOC(C)(C)C2)c1Cl` registered a melting point of 105 to 107 °C. Regarding `COc1ccc(CN2C(=O)c3c(-c4ccccc4Cl)cc4[nH]c5ccc(OC)cc5c4c3C2=O)c(OC)c1`, the melting point was 224 to 226 °C. For `CSc1nnc(C(N)(c2ccc(Cl)cc2)c2ccc3c(c2)c(-c2cccc(Cl)c2)nc2nnnn23)n1C` (stereo not given) the value was 150 °C; for `COc1ccc(C2CCc3ccccc3O2)cc1` (stereo not given), 82 to 83 °C.

For `Clc1ccc(SC(CCc2ccccc2)Cn2ccnc2)cc1Cl` (stereo not given), the melting point fell in the range of 145 to 147 °C.

`COc1cc(OC)c2c(=O)[nH]c(-c3cccc(-c4ccc(S(C)=O)cc4)c3)nc2c1` (stereo not given) displayed a melting point greater than 300 °C. Regarding `Cn1c([N+](=O)[O-])cnc1C1=NOC2OCCCC12` (stereo not given), the melting point lay within 140 to 142 °C. As for `C=CCOc1ccccc1S(=O)(=O)NC(=O)Nc1nc(C)cc(C)n1`, the melting point was in the range of 199 to 200 °C. Compound `CCCCCCCCCCCCCCCCCCOc1cc(N)cc(N(CC(=O)O)CC(=O)O)c1` returned a melting point of 185 to 195 °C. For `O=C(CC(=O)Nc1ccc2c(c1)NC(=O)C2)Nc1ccc(F)cc1` the value was 221 °C; for `COC1CC2(C)C(CCC3C4CCC(C(=O)COC(C)=O)C4(C)CC(=O)C32)CC1O` (stereo not given), 177 to 180 °C; for `CC(CCCC(C)(C)O)C1CCC2C3C=CC4=CC(=O)C5OC5C4(C)C3CCC12C` (stereo not given), 162 to 163 °C. With `O=C1CCCc2ncc(Cl)cc21`, the melting point lay within 84 to 86 °C. As for `Cc1ccc2c(c1)Oc1cscc1C(=O)N2`, the figure is 209 to 216 °C. `CCCCNC(C)=C1C(=O)OC(=O)C(C(C)=O)=C1O` had a melting point of 112 to 114 °C. Turning to `CNc1nc2ccccc2n2cnnc12`, the melting point was greater than 300 °C. Turning to `c1ccc2c(c1)[nH]c1nc(N3CCCC3)nc(N3CCCC3)c12`, the melting point fell in the range of 209 to 211 °C. For `O=C1NC=NC2CN=C(c3ccccc3)c3cc(Cl)ccc3C12` (stereo not given) the value was 150 to 155 °C; for `Cc1nc(-c2ccc(OCCCn3ccnc3)cc2)no1`, 110 to 112 °C. As for `O=C(Nc1cccc(F)c1)c1ccccn1`, the melting point lay in the range of 74 to 78 °C. Regarding `O=C(O)c1ccc(-c2nc(-c3ccccn3)cs2)cc1`, the melting point is greater than 300 °C. `CC(=O)c1c(O)cccc1OCC(O)COc1ccccc1C` (stereo not given) registered a melting point of 101 to 102 °C. Consider `Nc1nc(Cl)c(C2=NCCN2)c(Cl)n1`, for which the melting point is 197 to 198 °C. `O=C(CNC(=O)c1ccc([N+](=O)[O-])c(I(=O)=O)c1)OCC(Cl)(Cl)Cl` showed a melting point of 128 to 130 °C. As for `CCN1C(=O)C(C)(C)C(=O)N(C)c2cc(CN(CCc3cccnc3)S(=O)(=O)c3ccccc3)ccc21`, the figure is 143 to 146 °C; as for `CSc1ccc(C=C2CCc3cc(OCCn4ccnc4)ccc3C2=O)cc1`, 161 to 162 °C; as for `C#CCN1CCCc2ccc(OC(=O)Nc3ccccc3C)cc21`, 96 °C. For `CC(=O)c1ccc(Cn2c3c(c4cc(F)cc(F)c42)CCCC3CC(=O)O)cc1` (stereo not given) the value was 163 to 164 °C; for `CCCn1ncc2c(=O)[nH]c(-c3cc(C(=O)CN4CCOCC4)ccc3OCC)nc21`, 160 to 162 °C; for `O=[N+]([O-])c1cc(F)ccc1NC1CCCCC1`, 93 °C. In turn, `Cn1c(=O)n(S(=O)(=O)c2ccc(Cl)cc2)c(=O)c2ccc(Cl)cc21` had a melting point of 205 to 208 °C. As to `CN(Cc1ccc(NC(=O)C2=Cc3cc(-c4ccc(OCC(N)=O)cc4)ccc3S(=O)(=O)CC2)cc1)C1CCOCC1`, the melting point was in the range of 240 to 243 °C. Compound `Cc1cc(Cc2ccsc2)c(NC(=O)OCc2ccccc2)c(=O)n1CC(=O)O` had a melting point of 153 to 155 °C. The compound `COc1cc2c(Oc3ccc(Cl)cc3F)ncnc2cc1OCc1ccccc1` came in with a melting point of 179 to 180 °C. As for `O=C(Nc1ccc(N2CCN(C(=O)C(O)c3ccc(O)cc3Cl)CC2)nc1)Nc1ccccc1F` (stereo not given), the melting point lay within 133 to 135 °C.

The record behind these values is a melting point compilation (Tetko et al.; mined from patent text by program, amines drawn as free bases though some values may be those of a salt).
